The source of these data is EP0558245A1, “Heterobicyclic compounds as antagogists of alpha-1 adrenergic and SHT1A receptors” (priority 1992, dated 1993).

Where a name gives a salt, the structure may show the parent alone. Read-outs that look alike come from different tables or passages of the source.

For one series, the target named is α₁ receptors. Description: [3H]prazosin binding (α1 receptors), rat cerebral cortex membranes. The conditions noted are these: rat cerebral cortex crude membranes, [3H]prazosin 0.35 nM, 25°C 30 min; read-out: Receptor Binding IC50 (nM) α1.
For another series, the target named is T1, 5HT1A receptors (Rattus norvegicus, UniProt P19327).
T1 construct: Rat hippocampi were homogenized; from tissue; host or cells: rat hippocampus membranes
T1 sequence (P19327 1-422): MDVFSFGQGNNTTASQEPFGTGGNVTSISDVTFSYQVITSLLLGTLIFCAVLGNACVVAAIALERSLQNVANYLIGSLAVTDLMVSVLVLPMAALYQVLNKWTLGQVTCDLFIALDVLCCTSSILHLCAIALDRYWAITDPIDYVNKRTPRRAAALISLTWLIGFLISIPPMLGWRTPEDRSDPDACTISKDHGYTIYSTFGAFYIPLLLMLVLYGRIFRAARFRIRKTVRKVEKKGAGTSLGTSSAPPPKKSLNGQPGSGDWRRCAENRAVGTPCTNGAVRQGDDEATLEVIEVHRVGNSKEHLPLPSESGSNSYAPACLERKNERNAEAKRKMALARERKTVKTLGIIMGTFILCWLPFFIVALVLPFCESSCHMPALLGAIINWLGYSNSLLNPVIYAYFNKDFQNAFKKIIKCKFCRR
Description: [3H]8-OH-DPAT binding (5HT1A receptors), rat hippocampus membranes. As to conditions: rat hippocampus crude membranes, [3H]8-OH-DPAT 1.0 nM, 25°C 30 min; read-out: Receptor Binding IC50 (nM) 5-HT1a.

Series [1] is described as follows: Acute toxicity in mice after intraperitoneal and oral administration. As to conditions: mouse, in vivo, female albino Swiss mice, mortality recorded 7 days after administration. Summed up: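 Female albino Swiss mice (20-30 g) dosed i.p. or orally at four log-scaled doses in 0.5% Methocel (10 ml/kg), 4 mice/dose. Mortality recorded at 7 days; LD₅₀ with fiducial limits by Weil's method.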

Another series deals with rat bladder strips. The experiment in a line: K+-induced contractions of rat bladder strips. Type of series: cell-based. The conditions noted are these: 80 mM KCl, drug added 30 minutes before. As for the experimental part: The whole bladder of the rat was removed and immediately placed in Krebs solution warmed at 37°C. […] Each strip was placed in a 10 ml organ bath and connected, under a constant load of 1 g, to an isometric strain gauge (DY-1 Basile, Comerio, Varese, Italy). […] After a 60 minutes equilibration period the strips were exposed to 80 mM KCl (final concentration). […] When the tonic contraction was stable, the strips were washed and 30 minutes later a new contraction was induced. After having recorded two or more reproducible responses, one concentration of the tested drugs was added to the bath and 30 minutes later a new contraction was induced. The experimental groups consisted of at least two preparations taken from different animals for each concentration of drug tested. The IC₅₀ values of inhibition of agonist-induced contractions were evaluated by linear regression analysis.

The subject of series [2] is noradrenaline induced contraction of urethra. Description: Effects on urethral contractions (noradrenaline-induced) in anaesthetized dogs. Type of series: in vivo. As to conditions: for ED50: Canis lupus familiaris, iv, anaesthetized male beagle dogs, i.v. cumulative, active dose in inhibiting by 50% the noradrenaline induced contraction of urethra, read-out: Urethra ED50; for DBP/Urethra ratio: ratio between the active doses (selectivity index), * = non-selective: substantial effect on both urethra and DBP. The text has this:
(§1) In order to monitor systemic blood pressure (BP), a PE catheter was introduced into the aortic arch through the right common carotid artery.
(§2) A collateral of the left femoral vein was cannulated for infusion of anaesthetic, and the right femoral vein was cannulated for administration of drugs. For intrarterial (i.a.) injection of noradrenaline (NA), a PE catheter was introduced into the lower portion of abdominal aorta via the right external iliac artery. Through such procedure, NA was selectively distributed to the lower urinary tract. Via a midline laparotomy, the urinary bladder and proximal urethra were exposed. In order to prevent the filling of the bladder, the two ureters were cannulated and the urine led outside. In order to record the prostatic urethral pressure, a Mikro-tip catheter (6 F) was introduced into the bladder via the external urethral meatus, and withdrawn until the pressure transducer was positioned in the prostatic urethra. A ligature was secured between the neck of the bladder and urethra to isolate the response of the latter and avoid any interaction with the bladder. Another ligature was put around the Mikro-tip catheter at the external urethral meatus, to secure the catheter itself. After a stabilizing period following surgical procedure (30 min), in which arterial and prostatic urethral pressure were continuously monitored as basal values, i.a. administration of NA was made at intervals of 10 min. The dose of NA chosen was such to produce an increase of at least 100% in urethral pressure. The test compounds were administered i.v. in a cumulative manner with intervals of 15-20 min between administrations. I.a. injections of NA were repeated approximately 5 min. after every dosing of test compound. Dose response curves were constructed computing the percentage inhibition to the increase in urethral pressure (NA induced), and the percentage drop in blood pressure produced by the test compound.

A further series relates to diastolic blood pressure. The experiment in a line: Effects on blood pressure in anaesthetized dogs. Type of series: in vivo. As to conditions: Canis lupus familiaris, iv; anaesthetized male beagle dogs, i.v. cumulative; active dose in lowering diastolic blood pressure by 25%; read-out: DBP ED25.
From the text: as §1, §2

The mark [3] stands for this setting: ip, intraperitoneal, read-out: Acute Toxicity in Mice LD50 (mg/kg) i.p.
Setting [4] is: oral, read-out: Acute Toxicity in Mice LD50 (mg/kg) p.o.
Setting [5] is: phasic contraction, read-out: K+ Stimulation of Rat Bladder IC50 (μM) Contractions Phasic.
[6] abbreviates: tonic contraction, read-out: K+ Stimulation of Rat Bladder IC50 (μM) Contractions Tonic.

Description for α₁ receptors: Rat cerebral cortices were homogenized in 50 volumes of original wet weight of ice-cold 50 mM Tris-HCl buffer pH 7.4. The homogenates were centrifuged at 48,000 x g for 10 minutes, and the pellets were resuspended in the same volume of ice-cold buffer, centrifuged and resuspended two more times. The final pellets obtained were resuspended in the same volume of buffer and incubated according to the conditions reported in the table below.
The incubations were terminated after the appropriate time (see table) by rapid filtration through Whatman GF/B filters using a Brandel cell harvester. The filters were washed twice with 15 ml of ice-cold buffer (see table). The radioactivity retained on the filters was determined by liquid scintillation counting. Nonspecific binding (which amounted generally to 10-30%) was evaluated by adding high concentrations of the specific displacers (see table). All the compounds were initially tested at 1x10⁻⁶ M concentration, and in the presence of significant displacing activity, a complete competition curve was generated (down to a concentration of 10⁻¹¹ M). All the samples were run in triplicate.

As usually defined, the IC50 is the concentration needed to halve the response being measured. Broadly, the ED50 is the midpoint of the dose-response relation. As to `COc1ccccc1N1CCN(CCCNC(=O)c2cccc3c(=O)c(C)c(-c4ccccc4)oc23)CC1` [Example 11, 8-{3-[4-(2-methoxyphenyl)-1-piperazinyl]-propylcarbamoyl}-3-methyl-4-oxo-2-phenyl-4H-1-benzopyran dihydrochloride hemihydrate], the IC50 on α₁ receptors is 29 nM; at 5HT1A receptors, 9 nM; in the series on rat bladder strips (setting [5]), 2.9 µM; in the series on rat bladder strips (setting [6]), 3 µM. In addition, the LD50 at 168 h worked out at 247 mg/kg in series [1] (setting [3]) and 297 mg/kg in series [1] (setting [4]). Also, in series [2], the ED50 amounted to 0.0014 mg/kg. In addition, the DBP/Urethra ratio in series [2] came out at 278.6. In addition, the ED25 with diastolic blood pressure came to 0.39 mg/kg.
With `COc1ccccc1N1CCN(CCNC(=O)c2cccc3c(=O)c(C)c(-c4ccccc4)oc23)CC1` [Example 13, 8-{2-[4-(2-methoxyphenyl)-1-piperazinyl]-ethylcarbamoyl}-3-methyl-4-oxo-2-phenyl-4H-1-benzopyran monohydrochloride hemihydrate], the IC50 at α₁ receptors is 68 nM; on 5HT1A receptors, 229 nM; in the series on rat bladder strips (setting [5]), 10 µM; in the series with rat bladder strips (setting [6]) it was 10 µM. The LD50 at 168 h in series [1] (setting [3]) was above 1000 mg/kg; in series [1] (setting [4]), above 3000 mg/kg. Moreover, the ED50 in series [2] turned out to be 0.016 mg/kg. Besides, in series [2], the DBP/Urethra ratio was found to be 13.4. The ED25 with diastolic blood pressure stood at 0.215 mg/kg.
For the compound `COc1ccccc1N1CCN(CC(O)c2cccc3c(=O)c(C)c(-c4ccccc4)oc23)CC1.Cl` (stereo not drawn) [Example 17, 8-{1-hydroxy-2-[4-(2-methoxyphenyl)-1-piperazinyl]-ethyl}-3-methyl-4-oxo-2-phenyl-4H-1-benzopyran hydrochloride], the IC50 on α₁ receptors is 59 nM; at 5HT1A receptors, 910 nM; in the series on rat bladder strips (setting [5]), 8.8 µM; with rat bladder strips (setting [6]), 3.8 µM. Moreover, the figures for the LD50 at 168 h in series [1] (setting [3]) and in series [1] (setting [4]) were 299 mg/kg and 608 mg/kg, respectively. Moreover, the ED50 in series [2] was 0.01 mg/kg. For the same compound, the DBP/Urethra ratio in series [2] is on record as 0.6*. Further, the ED25 in the series on diastolic blood pressure is 0.0062 mg/kg.
As for `COc1ccccc1N1CCN(CCOCc2cccc3c(=O)c(C)c(-c4ccccc4)oc23)CC1.Cl.Cl` [Example 27, 8-{2-[4-(2-methoxyphenyl)-1-piperazinyl]-ethoxymethyl}-3-methyl-4-oxo-2-phenyl-4H-1-benzopyran dihydrochloride], the half-maximal inhibitory concentration (IC50) came out at 23 nM on α₁ receptors, 124 nM at 5HT1A receptors, 1 µM in the series on rat bladder strips (setting [5]) and 0.8 µM with rat bladder strips (setting [6]). In addition, the LD50 at 168 h in series [1] (setting [3]) is 399 mg/kg; in series [1] (setting [4]) it was above 3000 mg/kg. Moreover, the ED50 in series [2] was 0.0032 mg/kg. Besides, the DBP/Urethra ratio in series [2] is listed as 3.1*. Besides, the ED25 with diastolic blood pressure is 0.0098 mg/kg.
As for `COc1ccccc1N1CCN(CCCOc2cccc3c(=O)c(C)c(-c4ccccc4)oc23)CC1.Cl.Cl` [Example 40, 8-{3-[4-(2-methoxyphenyl)-1-piperazinyl]-propoxy}-3-methyl-4-oxo-2-phenyl-4H-1-benzopyran dihydrochloride], the IC50 was 75 nM at α₁ receptors, 83 nM at 5HT1A receptors, 0.5 µM with rat bladder strips (setting [5]) and 0.9 µM with rat bladder strips (setting [6]). For the same compound, the LD50 at 168 h came out at 140 mg/kg in series [1] (setting [3]) and 349 mg/kg in series [1] (setting [4]). For the same compound, the ED50 in series [2] came to 0.011 mg/kg. Further, the DBP/Urethra ratio in series [2] is on record as 13.8. In the series with diastolic blood pressure, the ED25 was 0.152 mg/kg.
With `COc1ccccc1N1CCN(CCCCCOc2cccc3c(=O)c(C)c(-c4ccccc4)oc23)CC1.Cl` [Example 42, 8-{5-[4-(2-methoxyphenyl)-1-piperazinyl]-pentyloxy}-3-methyl-4-oxo-2-phenyl-4H-1-benzopyran hydrochloride], the IC50 on α₁ receptors is 111 nM; on 5HT1A receptors, 39 nM; in the series on rat bladder strips (setting [5]), 10 µM; in the series with rat bladder strips (setting [6]), 10 µM. The figures for the LD50 at 168 h in series [1] (setting [3]) and in series [1] (setting [4]) were 459 mg/kg and 2160 mg/kg, respectively. In addition, the ED50 in series [2] stood at 0.031 mg/kg. Moreover, the DBP/Urethra ratio in series [2] stood at 13.0. The ED25 in the series with diastolic blood pressure is 0.404 mg/kg.
As to `COc1ccccc1N1CCN(CCCS(=O)(=O)c2cccc3c(=O)c(C)c(-c4ccccc4)oc23)CC1.Cl` [Example 47, 8-{3-[4-(2-methoxyphenyl)-1-piperazinyl]-propylsulphonyl}-3-methyl-4-oxo-2-phenyl-4H-1-benzopyran hydrochloride], the IC50 came out at 36 nM at α₁ receptors, 23 nM on 5HT1A receptors, 2.7 µM with rat bladder strips (setting [5]) and 5.2 µM in the series on rat bladder strips (setting [6]). The LD50 at 168 h in series [1] (setting [3]) was 330 mg/kg; in series [1] (setting [4]), 1050 mg/kg. Also, the ED50 in series [2] was found to be 0.035 mg/kg. The DBP/Urethra ratio in series [2] is listed as 15.1. Besides, in the series on diastolic blood pressure, the ED25 is 0.53 mg/kg.
